Drawing on PubChem BioAssay AID330 (DTP/NCI, 2004), this text covers T/C for 22 molecules.

The test system of this assay is P388 leukemia ip, CD2F1 mice, survival T/C. Description: NCI In Vivo Anticancer Drug Screen. Data for tumor model P388 Leukemia (intraperitoneal) in CD2F1 (CDF1) mice. The following applies: endpoint: median survival time, higher = longer survival. The method, boiled down:
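Mice carrying the transplanted tumor received test compound or vehicle. Survival was recorded in each group, and the value is the treated-group measurement divided by that of the vehicle-treated control group.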

The mark [1] stands for this setting: dose: 50.0 mg/kg/injection, schedule: Q01DX009 (ip), vehicle: Klucel (hydroxypropylcellulose) (HPC).
The mark [2] stands for this setting: dose: 100.0 mg/kg/injection, schedule: Q01DX009 (ip), vehicle: Klucel (hydroxypropylcellulose) (HPC).
The mark [3] stands for this setting: dose: 200.0 mg/kg/injection, schedule: Q01DX009 (ip), vehicle: Klucel (hydroxypropylcellulose) (HPC).
Where [4] appears, read: dose: 50.0 mg/kg/injection, schedule: Q01DX005 (ip), vehicle: Klucel (hydroxypropylcellulose) (HPC).
Setting [5] is: dose: 100.0 mg/kg/injection, schedule: Q01DX005 (ip), vehicle: Klucel (hydroxypropylcellulose) (HPC).
Where [6] appears, read: dose: 200.0 mg/kg/injection, schedule: Q01DX005 (ip), vehicle: Klucel (hydroxypropylcellulose) (HPC).
The mark [7] stands for this setting: dose: 100.0 mg/kg/injection, schedule: Q01DX001 (ip), vehicle: saline with Tween-80.
[8] abbreviates: dose: 200.0 mg/kg/injection, schedule: Q01DX001 (ip), vehicle: saline with Tween-80.
The mark [9] stands for this setting: dose: 400.0 mg/kg/injection, schedule: Q01DX001 (ip), vehicle: saline with Tween-80.
Where [10] appears, read: dose: 12.5 mg/kg/injection, schedule: Q01DX009 (ip), vehicle: saline with Tween-80.
Where [11] appears, read: dose: 25.0 mg/kg/injection, schedule: Q01DX009 (ip), vehicle: saline with Tween-80.
Where [12] appears, read: dose: 50.0 mg/kg/injection, schedule: Q01DX005 (ip), vehicle: saline with Tween-80.
Setting [13] is: dose: 50.0 mg/kg/injection, schedule: Q01DX009 (ip), vehicle: saline with Tween-80.
Setting [14] is: dose: 60.0 mg/kg/injection, schedule: Q01DX005 (ip), vehicle: saline with Tween-80.
Setting [15] is: dose: 120.0 mg/kg/injection, schedule: Q01DX005 (ip), vehicle: saline with Tween-80.
[16] abbreviates: dose: 240.0 mg/kg/injection, schedule: Q01DX005 (ip), vehicle: saline with Tween-80.
The mark [17] stands for this setting: dose: 12.5 mg/kg/injection, schedule: Q01DX009 (ip), vehicle: distilled water + Tween-80.
[18] abbreviates: dose: 25.0 mg/kg/injection, schedule: Q01DX009 (ip), vehicle: distilled water + Tween-80.
Where [19] appears, read: dose: 100.0 mg/kg/injection, schedule: Q04DX003 (ip), vehicle: saline with Tween-80.

SMILES strings stand for the structures. Where “and” joins values, the source holds several entries; their conditions need not be identical. Equal values may be shown once. Toxic doses and inconclusive results are not listed. Peptide text beside a SMILES is read from it. * marks the point of attachment. Boc = CC(C)(C)OC(=O)*; NHNH2 = NN*

As for `CC(C)(C)OC(=O)NC(Cc1c[nH]c2ccccc12)C(=O)NC(Cc1ccccc1)C(=O)NN` (stereo not drawn) (Boc-Trp-Phe-NHNH2; configuration not given here), the T/C reads like this: under setting [1], 92 % of control; under setting [2], 88 % of control; under setting [3], 91 % of control.
In the case of `O=[N+]([O-])[O-].OCCNCCNCC[OH2+].OCCNCCNCC[OH2+].[Ni+2]`, the T/C (dose: 3.13 mg/kg/injection, schedule: Q01DX009 (ip), vehicle: saline) was 88 % of control; the T/C (dose: 6.25 mg/kg/injection, schedule: Q01DX009 (ip), vehicle: saline) is 90 % of control; the T/C (dose: 12.5 mg/kg/injection, schedule: Q01DX009 (ip), vehicle: saline) was 102 % of control and 86 % of control.
In the case of `COC(=O)C1=C(c2ccccc2)ON2C(C)(C)COC12C` (stereo not given), the T/C is, setting by setting: under setting [4], 106 % of control; under setting [5], 106 % of control; under setting [6], 100 % of control.
`O=C(Oc1ccc[nH]c1=O)C1CCC1`: the T/C under setting [4] is 102 % of control and 92 % of control; the T/C under setting [5] was 102 % of control and 90 % of control; the T/C under setting [6] was 100 % of control and 91 % of control; the T/C (dose: 400.0 mg/kg/injection, schedule: Q01DX005 (ip), vehicle: Klucel (hydroxypropylcellulose) (HPC)) was 100 % of control and 103 % of control.
Consider `CN1CCN2C(=O)CCC2c2cc(Cl)ccc21` (stereo not given), for which the T/C is, setting by setting: under setting [7], 101 % of control; under setting [8], 101 % of control; under setting [9], 101 % of control.
For the molecule `CCN(CC)Cc1cc2[nH]c3c4ccc(Cl)cc4ncc3c2cc1OC`, the T/C is 101 % of control (dose: 6.25 mg/kg/injection, schedule: Q01DX009 (ip), vehicle: saline with Tween-80); 100 % of control under setting [10]; 98 % of control under setting [11]; 112 % of control under setting [12]; 87 % of control and 94 % of control under setting [13]; 102 % of control (dose: 100.0 mg/kg/injection, schedule: Q01DX005 (ip), vehicle: saline with Tween-80).
Consider `O=C(O)CCCc1cc(I)c(N(CCCl)CCCl)c(I)c1`, for which the T/C is 121 % of control under setting [10], 107 % of control under setting [11] and 121 % of control under setting [13].
For the molecule `COc1cc2c(c(OC)c1OC)-c1cc3c(cc1C(OC1OC4COC(c5cccs5)OC4C(O)C1O)C1COC(=O)C1C2)OCO3` (stereo not given), the T/C was 101 % of control (dose: 14.5 mg/kg/injection, schedule: Q01DX005 (ip), vehicle: Klucel (hydroxypropylcellulose) (HPC)); 99 % of control (dose: 29.0 mg/kg/injection, schedule: Q01DX005 (ip), vehicle: Klucel (hydroxypropylcellulose) (HPC)); 94 % of control (dose: 58.0 mg/kg/injection, schedule: Q01DX005 (ip), vehicle: Klucel (hydroxypropylcellulose) (HPC)); 90 % of control (dose: 116.0 mg/kg/injection, schedule: Q01DX005 (ip), vehicle: Klucel (hydroxypropylcellulose) (HPC)).
In the case of `COC(=O)C(=O)C(C(=O)c1cccc2ccccc12)c1nc2n(c1O)C(=N)N=N2` (stereo not given), the T/C is, setting by setting: under setting [14], 109 % of control; under setting [15], 104 % of control; under setting [16], 100 % of control.
With `Clc1ccccc1CN1COc2c(ccc3ccccc23)C1`, the T/C was 95 % of control (dose: 100.0 mg/kg/injection, schedule: Q04DX003 (ip), vehicle: Klucel (hydroxypropylcellulose) (HPC)); 100 % of control (dose: 200.0 mg/kg/injection, schedule: Q04DX003 (ip), vehicle: Klucel (hydroxypropylcellulose) (HPC)); 104 % of control (dose: 400.0 mg/kg/injection, schedule: Q04DX003 (ip), vehicle: Klucel (hydroxypropylcellulose) (HPC)).
For the molecule `CC(C)(C)c1cc(C(c2ccc3c(c2)OCO3)N2CCOCC2)c(O)c(C(C)(C)C)c1` (stereo not given), the T/C is, setting by setting: under setting [14], 100 % of control; under setting [15], 100 % of control; under setting [16], 100 % of control.
Turning to `COC(=O)c1cn(C(C)=O)c(C)c1C(=O)OC`, the T/C was 100 % of control under setting [7], 95 % of control under setting [8] and 104 % of control under setting [9].
For `Cc1cc(C(F)(F)F)nc(NNc2nc(C)cc(C(F)(F)F)n2)n1`, the T/C under setting [13] is 102 % of control; the T/C (dose: 100.0 mg/kg/injection, schedule: Q01DX009 (ip), vehicle: saline with Tween-80) was 88 % of control; the T/C (dose: 200.0 mg/kg/injection, schedule: Q01DX009 (ip), vehicle: saline with Tween-80) was 88 % of control.
Consider `CCNC1(c2ccccc2)CCCCC1`, for which the T/C (dose: 6.25 mg/kg/injection, schedule: Q04DX003 (ip), vehicle: saline) is 121 % of control; the T/C (dose: 12.5 mg/kg/injection, schedule: Q04DX003 (ip), vehicle: saline) was 106 % of control; the T/C (dose: 25.0 mg/kg/injection, schedule: Q04DX003 (ip), vehicle: saline) was 104 % of control.
For `O=c1[nH][nH]c(=O)c2c1CCC2`, the T/C by setting is: (dose: 6.25 mg/kg/injection, schedule: Q01DX009 (ip), vehicle: distilled water + Tween-80) 100 % of control; under setting [17], 100 % of control; under setting [18], 100 % of control; (dose: 50.0 mg/kg/injection, schedule: Q01DX009 (ip), vehicle: distilled water + Tween-80) 107 % of control; (dose: 100.0 mg/kg/injection, schedule: Q01DX009 (ip), vehicle: distilled water + Tween-80) 103 % of control; (dose: 200.0 mg/kg/injection, schedule: Q01DX009 (ip), vehicle: distilled water + Tween-80) 100 % of control.
As for `OCC1OC(n2cnc3c(SCc4ccccn4)ncnc32)C(O)C1O` (stereo not given), the T/C (dose: 12.5 mg/kg/injection, schedule: Q04DX003 (ip), vehicle: saline with Tween-80) was 109 % of control; the T/C (dose: 25.0 mg/kg/injection, schedule: Q04DX003 (ip), vehicle: saline with Tween-80) is 96 % of control; the T/C (dose: 50.0 mg/kg/injection, schedule: Q04DX003 (ip), vehicle: saline with Tween-80) is 99 % of control; the T/C under setting [19] was 96 % of control.
As to `ClC(Cl)=Nc1cc(Cl)c(Cl)cc1Cl`, the T/C (dose: 50.0 mg/kg/injection, schedule: Q01DX009 (ip), vehicle: saline) was 99 % of control; the T/C (dose: 100.0 mg/kg/injection, schedule: Q01DX009 (ip), vehicle: saline) was 90 % of control; the T/C (dose: 200.0 mg/kg/injection, schedule: Q01DX009 (ip), vehicle: saline) was 97 % of control.
In the case of `CCNC(=O)OCc1c(COC(=O)NCC)c2n(c1C)CCc1ccccc1-2`, the T/C under setting [17] was 157 % of control and 185 % of control; the T/C under setting [18] is 166 % of control.
In the case of `CC(C)c1cc(C(=O)O)c(O)c(C(C)C)c1.CC(C)c1cc(C(=O)O)c(O)c(C(C)C)c1.[Cu]`, the T/C runs as follows: (dose: 12.5 mg/kg/injection, schedule: Q01DX005 (ip), vehicle: saline with Tween-80) 96 % of control; (dose: 25.0 mg/kg/injection, schedule: Q01DX005 (ip), vehicle: saline with Tween-80) 90 % of control; under setting [12], 98 % of control.
As to `O=C1NC(=O)N2CCCOC2C1c1ccccc1` (stereo not given), the T/C was 103 % of control under setting [1], 99 % of control under setting [2] and 99 % of control under setting [3].
Take `O=C1OC(=O)C2C3C=CC(C12)C1C2C(=O)OC(=O)C2C31` (stereo not given): the T/C is, setting by setting: under setting [19], 103 % of control; (dose: 200.0 mg/kg/injection, schedule: Q04DX003 (ip), vehicle: saline with Tween-80) 99 % of control; (dose: 400.0 mg/kg/injection, schedule: Q04DX003 (ip), vehicle: saline with Tween-80) 96 % of control; (dose: 600.0 mg/kg/injection, schedule: Q04DX003 (ip), vehicle: saline with Tween-80) 96 % of control.
For the molecule `O=C1CCCC2C3CCC[N+]4([O-])CCCC(O)(CN12)C34` (stereo not given), the T/C (dose: 6.2 mg/kg/injection, schedule: Q01DX007 (ip), vehicle: carboxymethylcellulose (CMC)) was 100 % of control; the T/C (dose: 12.5 mg/kg/injection, schedule: Q01DX007 (ip), vehicle: carboxymethylcellulose (CMC)) is 91 % of control; the T/C (dose: 25.0 mg/kg/injection, schedule: Q01DX007 (ip), vehicle: carboxymethylcellulose (CMC)) was 91 % of control.
